This test deals with HEK293T cells carrying the ATF4 luciferase reporter. Briefly: ATF4-Luc assay (in vitro model of VWMD). Format: cell-based, human. Conditions: Homo sapiens, HEK-293T, 1 μg/mL tunicamycin, 7 hours, One Glo luminescence. In short, it runs like this:
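Stable HEK293T line expressing firefly luciferase behind the human ATF4 5′-UTR, treated with 1 μg/mL tunicamycin plus compound for 7 hours. Luminescence read with One Glo; EC50 determined.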

pEC50: −log10 of the molar value.

For `O=C1CC(C(=O)N[C@@H]2CC[C@@H](C(=O)N3CC(Oc4ccc(Cl)cc4)C3)OC2)Oc2ccc(Cl)cc21` (stereo partly drawn) [Compound 139, 6-chloro-N-{(3R,6S)-6-[3-(4-chlorophenoxy)azetidine-1-carbonyl]oxan-3-yl}-4-oxo-3,4-dihydro-2H-1-benzopyran-2-carboxamide], the pEC50 was 5.70 to 6.30.
In the case of `O=C(NC12CC(c3nnc([C@H]4C[C@@H](OC(F)(F)F)C4)o3)(C1)C2)[C@H]1C[C@@H](O)c2cc(Cl)ccc2O1` (racemic) [Compound 159, rac-(2R,4R)-6-chloro-4-hydroxy-N-(3-{5-[(1s,3S)-3-(trifluoromethoxy)cyclobutyl]-1,3,4-oxadiazol-2-yl}bicyclo[1.1.1]pentan-1-yl)-3,4-dihydro-2H-1-benzopyran-2-carboxamide] it was 7.30 to 8.00; in that of `O=C1CC(C(=O)N[C@@H]2CC[C@@H](C(=O)NCc3cn4ccc(Cl)cc4n3)OC2)Oc2ccc(Cl)cc21` (stereo partly drawn) [Compound 140, 6-chloro-N-[(3R,6S)-6-{[(7-chloroimidazo[1,2-a]pyridin-2-yl)methyl]carbamoyl}oxan-3-yl]-4-oxo-3,4-dihydro-2H-1-benzopyran-2-carboxamide], 6.60 to 7.30.
In the case of `O=C(NC12CC(c3nc([C@H]4C[C@@H](OC(F)(F)F)C4)no3)(C1)C2)[C@H]1C[C@@H](O)c2cc(Cl)ccc2O1` [Compound 229, (2R,4R)-6-chloro-4-hydroxy-N-(3-{3-[cis-3-(trifluoromethoxy)cyclobutyl]-1,2,4-oxadiazol-5-yl}bicyclo[1.1.1]pentan-1-yl)-3,4-dihydro-2H-1-benzopyran-2-carboxamide] it was 7.30 to 8.00; in that of `O=C(CO[C@H]1C[C@@H](OC(F)(F)F)C1)NC12CCC(NC(=O)[C@H]3CC(=O)c4cc(F)c(F)cc4O3)(CC1)CC2` [Compound 189, (2R)-6,7-difluoro-4-oxo-N-[4-(2-{[cis-3-(trifluoromethoxy)cyclobutyl]oxy}acetamido)bicyclo[2.2.2]octan-1-yl]-3,4-dihydro-2H-1-benzopyran-2-carboxamide], 7.30 to 8.00; in that of `O=C(NC12CC(c3cn([C@H]4C[C@@H](OC(F)(F)F)C4)cn3)(C1)C2)[C@H]1C[C@@H](O)c2cc(Cl)ccc2O1` [Compound 294, (2R,4R)-6-chloro-4-hydroxy-N-(3-{1-[cis-3-(trifluoromethoxy)cyclobutyl]-1H-imidazol-4-yl}bicyclo[1.1.1]pentan-1-yl)-3,4-dihydro-2H-1-benzopyran-2-carboxamide], 7.30 to 8.00.
For the molecule `O=C(NC12CC(c3cc(-c4ccc(C(F)(F)F)nc4)no3)(C1)C2)[C@H]1C[C@@H](O)c2cc(Cl)ccc2O1` [Compound 250, (2R,4R)-6-chloro-4-hydroxy-N-(3-{3-[6-(trifluoromethyl)pyridin-3-yl]-1,2-oxazol-5-yl}bicyclo[1.1.1]pentan-1-yl)-3,4-dihydro-2H-1-benzopyran-2-carboxamide], the pEC50 is 6.60 to 7.30.
The value for `O=C(NC12CC(c3ncc(-c4ccc(Cl)c(F)c4)o3)(C1)C2)[C@@H]1C[C@@H](O)c2cc(Cl)ccc2O1` [Compound 271, (2S,4R)-6-chloro-N-{3-[5-(4-chloro-3-fluorophenyl)-1,3-oxazol-2-yl]bicyclo[1.1.1]pentan-1-yl}-4-hydroxy-3,4-dihydro-2H-1-benzopyran-2-carboxamide] was 7.30 to 8.00.
The value for `O=C(NC12CC(c3cc([C@H]4C[C@@H](OC(F)(F)F)C4)on3)(C1)C2)[C@@H]1C[C@@H](O)c2cc(Cl)ccc2O1` [Compound 283, (2S,4R)-6-chloro-4-hydroxy-N-(3-{5-[cis-3-(trifluoromethoxy)cyclobutyl]-1,2-oxazol-3-yl}bicyclo[1.1.1]pentan-1-yl)-3,4-dihydro-2H-1-benzopyran-2-carboxamide] was 6.60 to 7.30; that for `O=C(NC12CC(c3nnc(COc4ccc(Cl)c(F)c4)o3)(C1)C2)[C@@H]1C[C@H](O)c2cc(Cl)ccc2O1` [Compound 111, (2S,4S)-6-chloro-N-(3-{5-[(4-chloro-3-fluorophenoxy)methyl]-1,3,4-oxadiazol-2-yl}bicyclo[1.1.1]pentan-1-yl)-4-hydroxy-3,4-dihydro-2H-1-benzopyran-2-carboxamide] was 7.30 to 8.00.
In the case of `O=C(NC12CC(c3cc(-c4ccc(C(F)(F)F)nc4)on3)(C1)C2)[C@@H]1C[C@@H](O)c2cc(Cl)ccc2O1` [Compound 261, (2S,4R)-6-chloro-4-hydroxy-N-(3-{5-[6-(trifluoromethyl)pyridin-3-yl]-1,2-oxazol-3-yl}bicyclo[1.1.1]pentan-1-yl)-3,4-dihydro-2H-1-benzopyran-2-carboxamide] it was 6.60 to 7.30; in that of `O=C(CO[C@H]1C[C@@H](OC(F)(F)F)C1)NC12CCC(NC(=O)[C@H]3C[C@@H](O)c4cc(Cl)ccc4O3)(C1)C2` [Compound 196, (2R,4R)-6-chloro-4-hydroxy-N-[4-(2-{[cis-3-(trifluoromethoxy)cyclobutyl]oxy}acetamido)bicyclo[2.1.1]hexan-1-yl]-3,4-dihydro-2H-1-benzopyran-2-carboxamide], 7.30 to 8.00.
As for `O=C(NC12CC(c3ncc([C@H]4C[C@@H](OC(F)(F)F)C4)o3)(C1)C2)[C@H]1C[C@@H](O)c2cc(Cl)ccc2O1` [Compound 288, (2R,4R)-6-chloro-4-hydroxy-N-(3-{5-[cis-3-(trifluoromethoxy)cyclobutyl]-1,3-oxazol-2-yl}bicyclo[1.1.1]pentan-1-yl)-3,4-dihydro-2H-1-benzopyran-2-carboxamide], the pEC50 is 7.30 to 8.00.
`O=C(N[C@H]1CC[C@H](N2CCN(c3cnc(C(F)F)cn3)C2=O)CC1)[C@H]1C[C@@H](O)c2cc(Cl)ccc2O1` (racemic) [Compound 136, rac-(2R,4R)-6-chloro-N-[(1r,4R)-4-{3-[5-(difluoromethyl)pyrazin-2-yl]-2-oxoimidazolidin-1-yl}cyclohexyl]-4-hydroxy-3,4-dihydro-2H-1-benzopyran-2-carboxamide]: the pEC50 is 6.60 to 7.30.
Consider `O=C(NC12CCC(NC(=O)[C@H]3C[C@@H](OC(F)(F)F)C3)(CC1)[C@@H](O)C2)[C@@H]1C[C@H](O)c2cc(Cl)ccc2O1` (racemic) [Compound 147, (2S,4S)-6-chloro-4-hydroxy-N-[(3S)-3-hydroxy-4-{[(1s,3R)-3-(trifluoromethoxy)cyclobutane-1-carbonyl]amino}bicyclo[2.2.2]octan-1-yl]-3,4-dihydro-2H-1-benzopyran-2-carboxamide and (2R,4R)-6-chloro-4-hydroxy-N-[(3S)-3-hydroxy-4-{[(1s,3R)-3-(trifluoromethoxy)cyclobutane-1-carbonyl]amino}bicyclo[2.2.2]octan-1-yl]-3,4-dihydro-2H-1-benzopyran-2-carboxamide], for which the pEC50 was 6.30 to 6.60.
In the case of `O=C(NCc1ccc(C(F)(F)F)cc1)[C@@H]1CC[C@@H](NC(=O)[C@H]2C[C@@H](O)c3cc(Cl)ccc3O2)CO1` (racemic) [Compound 121, (2R,4R)-6-chloro-4-hydroxy-N-[(3R,6S)-6-({[4-(trifluoromethyl)phenyl]methyl}carbamoyl)oxan-3-yl]-3,4-dihydro-2H-1-benzopyran-2-carboxamide and (2S,4S)-6-chloro-4-hydroxy-N-[(3R,6S)-6-({[4-(trifluoromethyl)phenyl]methyl}carbamoyl)oxan-3-yl]-3,4-dihydro-2H-1-benzopyran-2-carboxamide] it was 7.30 to 8.00; in that of `O=C(NC12CC(c3cnc(-c4ccc(Cl)c(F)c4)o3)(C1)C2)[C@H]1C[C@@H](O)c2cc(Cl)ccc2O1` [Compound 305, (2R,4R)-6-chloro-N-{3-[2-(4-chloro-3-fluorophenyl)-1,3-oxazol-5-yl]bicyclo[1.1.1]pentan-1-yl}-4-hydroxy-3,4-dihydro-2H-1-benzopyran-2-carboxamide], above 8.00; in that of `O=C(CO[C@H]1C[C@@H](OC(F)(F)F)C1)NC12CC(NC(=O)[C@H]3C[C@H](O)c4cc(Cl)ccc4O3)(C1)C2` (single isomer, unassigned) [Compound 293], above 8.00.
In the case of `O=C(N[C@H]1CC[C@H](C(=O)NCc2ccc(C(F)(F)F)cn2)CC1)[C@H]1C[C@@H](O)c2cc(Cl)ccc2O1` [Compound 105] it was above 8.00; in that of `O=C(NC12CC(c3cc([C@H]4C[C@@H](OC(F)(F)F)C4)no3)(C1)C2)[C@@H]1C[C@@H](O)c2cc(Cl)ccc2O1` [Compound 268, (2S,4R)-6-chloro-4-hydroxy-N-(3-{3-[cis-3-(trifluoromethoxy)cyclobutyl]-1,2-oxazol-5-yl}bicyclo[1.1.1]pentan-1-yl)-3,4-dihydro-2H-1-benzopyran-2-carboxamide], 6.60 to 7.30.
With `O=C(NC12CC(n3cnc(-c4ccc(F)c(F)c4)c3)(C1)C2)[C@H]1C[C@@H](O)c2cc(Cl)ccc2O1` (racemic) [Compound 149, rac-(2R,4R)-6-chloro-N-{3-[4-(3,4-difluorophenyl)-1H-imidazo-1-yl]bicyclo[1.1.1]pentan-1-yl}-4-hydroxy-3,4-dihydro-2H-1-benzopyran-2-carboxamide], the pEC50 was above 8.00.
Turning to `O=C1C[C@H](C(=O)N[C@H]2CC[C@H](N3CCN(C4CC(OC(F)(F)F)C4)C3=O)CC2)Oc2ccc(Cl)cc21` (stereo partly drawn) [Compound 188, (2R)-6-chloro-4-oxo-N-[(1r,4R)-4-{2-oxo-3-[3-(trifluoromethoxy)cyclobutyl]imidazolidin-1-yl}cyclohexyl]-3,4-dihydro-2H-1-benzopyran-2-carboxamide], the pEC50 is below 5.70.
`O=C(NC12CCC(c3nnc([C@H]4C[C@@H](OC(F)(F)F)C4)o3)(CC1)CC2)[C@H]1C[C@@H](O)c2cc(Cl)ccc2O1` (racemic) [Compound 171, rac-(2R,4R)-6-chloro-4-hydroxy-N-(4-{5-[cis-3-(trifluoromethoxy)cyclobutyl]-1,3,4-oxadiazol-2-yl}bicyclo[2.2.2]octan-1-yl)-3,4-dihydro-2H-1-benzopyran-2-carboxamide]: the negative-log EC50 (pEC50) was above 8.00.
With `O=C(NC12CC(c3cc(-c4ccc(C(F)(F)F)nc4)on3)(C1)C2)[C@H]1C[C@@H](O)c2cc(Cl)ccc2O1` [Compound 260, (2R,4R)-6-chloro-4-hydroxy-N-(3-{5-[6-(trifluoromethyl)pyridin-3-yl]-1,2-oxazol-3-yl}bicyclo[1.1.1]pentan-1-yl)-3,4-dihydro-2H-1-benzopyran-2-carboxamide], the pEC50 is 7.30 to 8.00.

For the origin of these results see patent US20200347043A1, “MODULATORS OF THE INTEGRATED STRESS PATHWAY” (Calico Life Sciences LLC, priority 2019, published 2020).
